What was measured:
Sus scrofa [1] = experiment: Anesthetic activity in mini pig assessed as onset time for loss of righting reflex at 4 mg/kg, administered as bolus dose; format: functional
[2] = Toxicity in Sprague-Dawley rat; conditions: in vivo
Sus scrofa [3] = experiment: Anesthetic activity in mini pig assessed as recovery time at 4 mg/kg, administered as bolus dose; format: functional
Mus musculus = experiment: Anesthetic activity in mouse model assessed as loss of righting reflex; format: functional
[4] = Therapeutic index, ratio of LD50 for toxicity in mouse to ED50 for anesthetic effect in mouse
Canis familiaris [5] = experiment: Anesthetic activity in Beagle dog assessed as onset time for loss of righting reflex at 12.5 mg/kg, administered as bolus dose; format: functional, Canis lupus familiaris
Canis familiaris [6] = experiment: Anesthetic activity in Beagle dog assessed as anesthetic duration time at 12.5 mg/kg, administered as bolus dose; format: functional, Canis lupus familiaris
Canis familiaris [7] = experiment: Anesthetic activity in Beagle dog assessed as recovery time at 12.5 mg/kg, administered as bolus dose; format: functional, Canis lupus familiaris
[8] = Therapeutic index, ratio of LD50 for toxicity in Sprague-Dawley rat to ED50 for anesthetic effect in Sprague-Dawley rat; conditions: read-out: Ratio LD50/ED50
[9] = Toxicity in mouse; format: organism-based; conditions: in vivo
Sus scrofa [10] = experiment: Anesthetic activity in mini pig assessed as anesthetic duration time at 4 mg/kg, administered as bolus dose; format: functional
Rattus norvegicus = experiment: Anesthetic activity in Sprague-Dawley rat assessed as loss of righting reflex; format: functional
Sus scrofa [11] = experiment: Anesthetic activity in mini pig assessed as onset time for loss of righting reflex at 22.5 mg/kg, administered as bolus dose; format: functional
Canis familiaris [12] = experiment: Anesthetic activity in Beagle dog assessed as recovery time at 75 mg/kg, administered as bolus dose; format: functional, Canis lupus familiaris
Sus scrofa [13] = experiment: Anesthetic activity in mini pig assessed as recovery time at 22.5 mg/kg, administered as bolus dose; format: functional
Sus scrofa [14] = experiment: Anesthetic activity in mini pig assessed as anesthetic duration time at 22.5 mg/kg, administered as bolus dose; format: functional
Canis familiaris [15] = experiment: Anesthetic activity in Beagle dog assessed as onset time for loss of righting reflex at 75 mg/kg, administered as bolus dose; format: functional, Canis lupus familiaris
Canis familiaris [16] = experiment: Anesthetic activity in Beagle dog assessed as anesthetic duration time at 75 mg/kg, administered as bolus dose; format: functional, Canis lupus familiaris
Canis familiaris [17] = experiment: Anesthetic activity in Beagle dog assessed as onset time for loss of righting reflex at 25 mg/kg, administered as bolus dose; format: functional, Canis lupus familiaris
Canis familiaris [18] = experiment: Anesthetic activity in Beagle dog assessed as recovery time at 25 mg/kg, administered as bolus dose; format: functional, Canis lupus familiaris
Sus scrofa [19] = experiment: Anesthetic activity in mini pig assessed as onset time for loss of righting reflex at 5 mg/kg, administered as bolus dose; format: functional
Sus scrofa [20] = experiment: Anesthetic activity in mini pig assessed as recovery time at 5 mg/kg, administered as bolus dose; format: functional
Sus scrofa [21] = experiment: Anesthetic activity in mini pig assessed as anesthetic duration time at 5 mg/kg, administered as bolus dose; format: functional
Canis familiaris [22] = experiment: Anesthetic activity in Beagle dog assessed as anesthetic duration time at 25 mg/kg, administered as bolus dose; format: functional, Canis lupus familiaris

## C[C@@H](c1cccc([C@H](C)C2CC2)c1OCOP(=O)([O-])[O-])C1CC1.[Na+].[Na+]
Sus scrofa [1]
  Time: 3 min
[2]
  LD50: 40.4 mg/kg
Sus scrofa [3]
  Time: 9.6 min
Mus musculus
  ED50: 11.7 mg/kg
[4]
  Ratio LD50/ED50: 3.6
Canis familiaris [5]
  Time: 0.9 min
Canis familiaris [6]
  Time: 70.2 min
Canis familiaris [7]
  Time: 3.3 min
[8]
  selectivity ratio: 5.51
[9]
  LD50: 42.5 mg/kg
Sus scrofa [10]
  Time: 65.8 min
Rattus norvegicus
  ED50: 7.34 mg/kg

## CC(C)c1cccc(C(C)C)c1OCOP(=O)([O-])[O-].[Na+].[Na+] [FOSPROPOFOL DISODIUM]
[2]
  LD50: 189 mg/kg
Sus scrofa [11]
  Time: 1.6 min
Canis familiaris [12]
  Time: 7.3 min
Sus scrofa [13]
  Time: 6 min
Mus musculus
  ED50: 95 mg/kg
Sus scrofa [14]
  Time: 72.6 min
[4]
  Ratio LD50/ED50: 2.3
[8]
  selectivity ratio: 4.61
Canis familiaris [15]
  Time: 2.1 min
Canis familiaris [16]
  Time: 80.4 min
[9]
  LD50: 220 mg/kg
Rattus norvegicus
  ED50: 41 mg/kg

## CC(C)c1cccc([C@H](C)C2CC2)c1OCOP(=O)([O-])[O-].[Na+].[Na+]
Canis familiaris [17]
  Time: 0.7 min
Canis familiaris [18]
  Time: 11.2 min
Sus scrofa [19]
  Time: 1.6 min
Mus musculus
  ED50: 20.4 mg/kg
[4]
  Ratio LD50/ED50: 4.2
Sus scrofa [20]
  Time: 4.8 min
[8]
  selectivity ratio: 4.74
Sus scrofa [21]
  Time: 68.2 min
[9]
  LD50: 86.5 mg/kg
Canis familiaris [22]
  Time: 72.2 min
Rattus norvegicus
  ED50: 12.9 mg/kg
